Experimental data taken from ChEMBL document CHEMBL1201862, “PubChem BioAssay data set” (2004).
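Interpolation was linear, between the two tested concentrations surrounding the appropriate level; five concentrations were tested over 48 hours in 96-well plates. Here, GI50 denotes the concentration required for 50% inhibition of growth.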 The source made the active and inactive calls. Cut-off read from the data, not from the text of the source: active = GI50 up to about 1.1 µM and inactive = higher.

Legend:
Assay in all cases: NCI anticancer screen, dose series, 48 h
[1] = test system: 786-0
[2] = test system: A498
[3] = test system: A549
[4] = test system: ACHN
[5] = test system: CAKI-1
[6] = test system: CCRF-CEM
[7] = test system: COLO 205
[8] = test system: DLD-1
[9] = test system: DMS-114
[10] = test system: DMS-273
[11] = test system: EKVX
[12] = test system: HCC 2998
[13] = test system: HCT-116
[14] = test system: HCT-15
[15] = test system: HL-60
[16] = test system: HOP-18
[17] = test system: HOP-62
[18] = test system: HOP-92
[19] = test system: HT-29
[20] = test system: IGROV-1
[21] = test system: K562
[22] = test system: KM-20L2
[23] = test system: KM12
[24] = test system: LOX IMVI
[25] = test system: LXFL 529
[26] = test system: M14
[27] = test system: M19-MEL
[28] = test system: MOLT-4
[29] = test system: Malme-3M
[30] = test system: NCI-H226
[31] = test system: NCI-H23
[32] = test system: NCI-H460
[33] = test system: NCI-H522
[34] = test system: OVCAR-3
[35] = test system: OVCAR-4
[36] = test system: OVCAR-5
[37] = test system: OVCAR-8
[38] = test system: RPMI-8226
[39] = test system: RXF 393
[40] = test system: RXF 631
[41] = test system: SF-268
[42] = test system: SF-295
[43] = test system: SF-539
[44] = test system: SK-MEL-28
[45] = test system: SK-MEL-2
[46] = test system: SK-MEL-5
[47] = test system: SK-OV-3
[48] = test system: SN12C
[49] = test system: SNB-19
[50] = test system: SNB-75
[51] = test system: SNB-78
[52] = test system: SR
[53] = test system: SW-620
[54] = test system: TK-10
[55] = test system: U-251
[56] = test system: UACC-257
[57] = test system: UACC-62
[58] = test system: UO-31
[59] = test system: XF498

## CC1NOC(=O)C1/N=N/c1ccccc1Br (centres undefined)
[1]
  GI50: 17.5 µM (inactive)
[2]
  GI50: 26.8 µM (inactive)
[3]
  GI50: 24.2 µM (inactive)
[4]
  GI50: 35.3 µM (inactive)
[5]
  GI50: 16.8 µM (inactive)
[6]
  GI50: 25.8 µM (inactive)
[7]
  GI50: 20.6 µM (inactive)
[8]
  GI50: 31.6 µM (inactive)
[9]
  GI50: 18.9 µM (inactive)
[10]
  GI50: 31.6 µM (inactive)
[11]
  GI50: 34.2 µM (inactive)
[12]
  GI50: 41.2 µM (inactive)
[13]
  GI50: 32.5 µM (inactive)
[14]
  GI50: 28.4 µM
[15]
  GI50: 18.9 µM (inactive)
[16]
  GI50: 26.5 µM (inactive)
[17]
  GI50: 43.9 µM (inactive)
[18]
  GI50: 24 µM (inactive)
[19]
  GI50: 39.6 µM (inactive)
[20]
  GI50: 36 µM (inactive)
[21]
  GI50: 22.9 µM (inactive)
[22]
  GI50: 38.3 µM (inactive)
[23]
  GI50: 21.2 µM (inactive)
[24]
  GI50: 23.9 µM (inactive)
[25]
  GI50: 15.7 µM (inactive)
[26]
  GI50: 21.4 µM (inactive)
[27]
  GI50: 19 µM (inactive)
[28]
  GI50: 29 µM (inactive)
[29]
  GI50: 26.2 µM (inactive)
[30]
  GI50: 31.6 µM (inactive)
[31]
  GI50: 22.6 µM (inactive)
[32]
  GI50: 21.7 µM (inactive)
[33]
  GI50: 18.5 µM (inactive)
[34]
  GI50: 20.5 µM (inactive)
[35]
  GI50: 39.3 µM (inactive)
[36]
  GI50: 40.7 µM (inactive)
[37]
  GI50: 22 µM (inactive)
[38]
  GI50: 28.8 µM (inactive)
[39]
  GI50: 13.9 µM (inactive)
[40]
  GI50: 31.3 µM (inactive)
[41]
  GI50: 28.4 µM (inactive)
[42]
  GI50: 40.7 µM (inactive)
[43]
  GI50: 22.3 µM (inactive)
[44]
  GI50: 31 µM (inactive)
[45]
  GI50: 16.2 µM (inactive)
[46]
  GI50: 15.3 µM (inactive)
[47]
  GI50: 38.1 µM (inactive)
[48]
  GI50: 24.5 µM (inactive)
[49]
  GI50: 37.4 µM (inactive)
[50]
  GI50: 31.4 µM (inactive)
[51]
  GI50: 26.5 µM (inactive)
[52]
  GI50: 25.1 µM (inactive)
[53]
  GI50: 13.8 µM (inactive)
[54]
  GI50: 24.5 µM (inactive)
[55]
  GI50: 22.4 µM (inactive)
[56]
  GI50: 24 µM (inactive)
[57]
  GI50: 19.9 µM (inactive)
[58]
  GI50: 18.6 µM (inactive)
[59]
  GI50: 20.3 µM (inactive)

## COc1cc2c(cc1OC)C1c3ccccc3C(C#N)(C2)N(C(=O)c2ccccc2)C1O (centres undefined)
[1]
  GI50: > 100 µM (inactive)
[4]
  GI50: 50 µM (inactive)
[6]
  GI50: 52.1 µM (inactive)
[7]
  GI50: 22.8 µM (inactive)
[8]
  GI50: 74.1 µM (inactive)
[9]
  GI50: 41.2 µM (inactive)
[10]
  GI50: 29.6 µM (inactive)
[11]
  GI50: 75 µM (inactive)
[12]
  GI50: > 100 µM (inactive)
[13]
  GI50: > 100 µM (inactive)
[14]
  GI50: 55.8 µM
[15]
  GI50: 42.3 µM (inactive)
[16]
  GI50: > 100 µM (inactive)
[17]
  GI50: 25.7 µM (inactive)
[18]
  GI50: > 100 µM (inactive)
[19]
  GI50: > 100 µM (inactive)
[20]
  GI50: 47.5 µM (inactive)
[21]
  GI50: 36.5 µM (inactive)
[22]
  GI50: 82.4 µM (inactive)
[23]
  GI50: 46.5 µM (inactive)
[24]
  GI50: > 100 µM (inactive)
[25]
  GI50: 46.6 µM (inactive)
[26]
  GI50: 79.1 µM (inactive)
[27]
  GI50: > 100 µM (inactive)
[28]
  GI50: 35.2 µM (inactive)
[29]
  GI50: > 100 µM (inactive)
[30]
  GI50: 61.1 µM (inactive)
[31]
  GI50: 84.5 µM (inactive)
[32]
  GI50: 59.7 µM (inactive)
[33]
  GI50: 21.3 µM (inactive)
[34]
  GI50: 52.1 µM (inactive)
[36]
  GI50: > 100 µM (inactive)
[37]
  GI50: 54.2 µM (inactive)
[38]
  GI50: 45 µM (inactive)
[39]
  GI50: 85.5 µM (inactive)
[40]
  GI50: > 100 µM (inactive)
[41]
  GI50: > 100 µM (inactive)
[42]
  GI50: > 100 µM (inactive)
[43]
  GI50: > 100 µM (inactive)
[44]
  GI50: > 100 µM (inactive)
[45]
  GI50: 56.5 µM (inactive)
[46]
  GI50: 30.7 µM (inactive)
[47]
  GI50: 77.3 µM (inactive)
[48]
  GI50: > 100 µM (inactive)
[49]
  GI50: 59 µM (inactive)
[50]
  GI50: 45.7 µM (inactive)
[51]
  GI50: 37.1 µM (inactive)
[52]
  GI50: 79.8 µM (inactive)
[53]
  GI50: 65 µM (inactive)
[54]
  GI50: 93.1 µM (inactive)
[55]
  GI50: 56.5 µM (inactive)
[56]
  GI50: 60.7 µM (inactive)
[57]
  GI50: 43.7 µM (inactive)
[58]
  GI50: 61.8 µM (inactive)
[59]
  GI50: 24.8 µM (inactive)

## COc1ccc(C2ON(c3cccc(C)n3)CC=C2C)cc1 (centres undefined)
[1]
  GI50: 44.7 µM (inactive)
[3]
  GI50: 40.7 µM (inactive)
[4]
  GI50: 56 µM (inactive)
[5]
  GI50: 74.1 µM (inactive)
[6]
  GI50: 42.9 µM (inactive)
[7]
  GI50: 41.4 µM (inactive)
[8]
  GI50: 35.7 µM (inactive)
[9]
  GI50: 40.7 µM (inactive)
[10]
  GI50: 26.1 µM (inactive)
[11]
  GI50: > 100 µM (inactive)
[12]
  GI50: 59.3 µM (inactive)
[14]
  GI50: 26.9 µM
[15]
  GI50: 18 µM (inactive)
[16]
  GI50: > 100 µM (inactive)
[17]
  GI50: 65.3 µM (inactive)
[19]
  GI50: 32 µM (inactive)
[20]
  GI50: 60.8 µM (inactive)
[21]
  GI50: 38.8 µM (inactive)
[22]
  GI50: 47.1 µM (inactive)
[23]
  GI50: 36.3 µM (inactive)
[24]
  GI50: 41.5 µM (inactive)
[25]
  GI50: 37.2 µM (inactive)
[26]
  GI50: 32.6 µM (inactive)
[27]
  GI50: 34.6 µM (inactive)
[28]
  GI50: 36.4 µM (inactive)
[29]
  GI50: 36.6 µM (inactive)
[30]
  GI50: > 100 µM (inactive)
[31]
  GI50: 27.6 µM (inactive)
[32]
  GI50: 67.9 µM (inactive)
[33]
  GI50: 19.2 µM (inactive)
[34]
  GI50: > 100 µM (inactive)
[35]
  GI50: 62.5 µM (inactive)
[36]
  GI50: > 100 µM (inactive)
[37]
  GI50: > 100 µM (inactive)
[38]
  GI50: 30.9 µM (inactive)
[39]
  GI50: 29.4 µM (inactive)
[40]
  GI50: 48.2 µM (inactive)
[41]
  GI50: 60.1 µM (inactive)
[42]
  GI50: 59.8 µM (inactive)
[43]
  GI50: 60 µM (inactive)
[44]
  GI50: 23.7 µM (inactive)
[45]
  GI50: 27.4 µM (inactive)
[46]
  GI50: 17.6 µM (inactive)
[47]
  GI50: 97.9 µM (inactive)
[48]
  GI50: 70.6 µM (inactive)
[49]
  GI50: 97.1 µM (inactive)
[50]
  GI50: 29 µM (inactive)
[51]
  GI50: 37.4 µM (inactive)
[52]
  GI50: 30.1 µM (inactive)
[53]
  GI50: 30.6 µM (inactive)
[55]
  GI50: 32.4 µM (inactive)
[56]
  GI50: 31 µM (inactive)
[57]
  GI50: 40.7 µM (inactive)
[58]
  GI50: 45.7 µM (inactive)
[59]
  GI50: 38.3 µM (inactive)
